Experimental data published in patent publication US4476133A, “Triazolo-4,1-benzoxazepines having CNS activity” (Shionogi & Co., Ltd., priority 1980, dated 1984).

Columns and labels:
[1] = acute toxicity; details: mouse, in vivo; oral; DS infant male mice, 20 to 23 g; observed 72 hours; Bliss method
Procedure: Test compounds were orally administered to DS infant male mice with four toxic doses. For each dose 10 mice were used, their body weights ranging from 20 to 23 grams. […] Mortality was calculated by the Bliss method [Bliss: Ann. Appln. Biol., 23, 134-307 (1935); Quant. J. Pharmacol., 11, 192 (1938)].

[2] = test system: tonic convulsion; assay: antipentylenetetrazole test indicating anticonvulsive activities; format: in vivo; details: Mus musculus; oral, 60 min before s.c. pentylenetetrazole 125 mg/kg; mortality observed for 2 h; DS male mice
Procedure: In determination of the antipentylenetetrazole activity, four test lots consisting of 4×10 DS male mice were employed. Within 15 minutes after single subcutaneous injection of 125 mg/kg (body weight of mouse) of pentylenetetrazole (a kind of convulsion reagent given as an aqueous solution), the mice were attacked by tonic convulsion which killed them. Test compound was orally administered 60 minutes before said s.c. injection. Observation was made for two hours postinjection of pentylenetetrazole. Anticonvulsant activity was determined in mortality percentage between 100% (all the mice dead) and 0% (all the mice alive). Test results are shown by preventive ED50 value (Effective Doses in mg/kg, a theoretical level of 50% alive and 50% dead)[Goodman, et al.: J. Pharmacol., 108, 168 (1953)].

[3] = biological target: benzodiazepine receptors; assay: radio receptor assay using receptors extracted from brains of rats and 3H-diazepam; format: binding; details: receptors extracted from rat brains

| SMILES | LD50 at 72 h [1] | ED50 [2] | Ki [3] |
| --- | --- | --- | --- |
| CC(C)OCc1nnc2n1-c1ccc(Cl)cc1C(c1ccccc1Cl)OC2 (stereo not drawn) [Compound 10] | > 1000 mg/kg | 2.42 mg/kg |  |
| CN(C)Cc1nnc2n1-c1ccc(Cl)cc1C(c1ccccc1Cl)OC2 (stereo not drawn) [Compound 8] | > 1000 mg/kg | 1.02 mg/kg |  |
| OCc1nnc2n1-c1ccc(Cl)cc1C(c1ccccc1Cl)OC2 (stereo not drawn) [Compound 6] | > 1000 mg/kg | 3.25 mg/kg |  |
| Cc1nnc2n1-c1ccc(Cl)cc1C(c1ccccc1Cl)OC2C (stereo not drawn) [Compound 13] | > 1000 mg/kg | 1.19 mg/kg |  |
| Clc1ccc2c(c1)C(c1ccccc1Cl)OCc1nnc(CN3CCOCC3)n1-2 (stereo not drawn) [Compound 5] | > 1000 mg/kg | 3.81 mg/kg |  |
| Cc1nnc2n1-c1ccc(Cl)cc1C(c1ccccc1C(F)(F)F)OC2 (stereo not drawn) [Compound 15] | > 1000 mg/kg | 1.41 mg/kg |  |
| Cn1nc2n(c1=O)-c1ccc(Cl)cc1C(c1ccccc1Cl)OC2 (stereo not drawn) [Compound 12] | > 1000 mg/kg | 3.46 mg/kg |  |
| Clc1ccc2c(c1)C(c1ccccc1Cl)OCc1nnc(N3CCOCC3)n1-2 (stereo not drawn) [Compound 2] | > 1000 mg/kg | 4.26 mg/kg |  |
| CCCOCc1nnc2n1-c1ccc(Cl)cc1C(c1ccccc1Cl)OC2 (stereo not drawn) [Compound 11] | > 1000 mg/kg | 3.09 mg/kg |  |
| CC(=O)OCc1nnc2n1-c1ccc(Cl)cc1C(c1ccccc1Cl)OC2 (stereo not drawn) [Compound 4] | > 1000 mg/kg | 1.2 mg/kg |  |
| CCOCc1nnc2n1-c1ccc(Cl)cc1C(c1ccccc1Cl)OC2 (stereo not drawn) [Compound 7] | > 1000 mg/kg | 2.13 mg/kg |  |
| CC(=O)OCCc1nnc2n1-c1ccc(Cl)cc1C(c1ccccc1Cl)OC2C (stereo not drawn) [Compound 14] | > 1000 mg/kg | 1.67 mg/kg |  |
| COCc1nnc2n1-c1ccc(Cl)cc1C(c1ccccc1Cl)OC2 (stereo not drawn) [Compound 3] | > 1000 mg/kg | 2.38 mg/kg |  |
| CN1C(=O)CN=C(c2ccccc2)c2cc(Cl)ccc21 [Diazepam, reference compound] |  | 1.2 mg/kg |  |
| Clc1ccc2c(c1)C(c1ccccc1Cl)OCc1nncn1-2 (stereo not drawn) [Compound 1] | > 1000 mg/kg | 1.25 mg/kg |  |
| CN1CCN=C(c2ccccc2)c2cc(Cl)ccc21 [Medazepam, reference compound] | > 1000 mg/kg |  |  |
| Clc1ccc2c(c1)C(c1ccccc1Cl)OCc1nnc(CN3CCCC3)n1-2 (stereo not drawn) [Compound 9] | > 1000 mg/kg | 4.63 mg/kg |  |
| OCc1nnc2n1-c1ccc(Cl)cc1C(c1ccccc1Cl)OC2 (stereo not drawn) [1-Hydroxymethyl-6-(2-chlorophenyl)-8-chloro-4H,6H-(1,2,4)triazolo[4,3-a][4,1]benzoxazepine] |  |  | 3.45 nM |
